One block for each molecule: values may come before it.
Key:
[1] = target: Choline kinase alpha (Homo sapiens) (UniProt P35790); assay: Selectivity interaction (Kinase panel (literature)) EUB0001199aCl CHKA; settings: at 1 µM
[2] = target: Serine/threonine-protein kinase 25 (Homo sapiens) (UniProt O00506); assay: Selectivity interaction (SelectScreen profiling (Invitrogen)) EUB0000607a STK25; settings: at 2 µM
[3] = target: Mitogen-activated protein kinase 10 (Homo sapiens, UniProt P53779); assay: Selectivity interaction (KinomeScan (DiscoverX)) EUB0000695a MAPK10; settings: at 100 nM
[4] = target: T1, Mitogen-activated protein kinase kinase kinase 3 (Homo sapiens) (UniProt Q99759); assay: Selectivity interaction (Ambit KINOMEscan and KiNATiv profiling in Jurkat cells) EUB0000090b MAP3K3; assay type: cell-based; settings: at 1 µM
T1 sequence (whole entry): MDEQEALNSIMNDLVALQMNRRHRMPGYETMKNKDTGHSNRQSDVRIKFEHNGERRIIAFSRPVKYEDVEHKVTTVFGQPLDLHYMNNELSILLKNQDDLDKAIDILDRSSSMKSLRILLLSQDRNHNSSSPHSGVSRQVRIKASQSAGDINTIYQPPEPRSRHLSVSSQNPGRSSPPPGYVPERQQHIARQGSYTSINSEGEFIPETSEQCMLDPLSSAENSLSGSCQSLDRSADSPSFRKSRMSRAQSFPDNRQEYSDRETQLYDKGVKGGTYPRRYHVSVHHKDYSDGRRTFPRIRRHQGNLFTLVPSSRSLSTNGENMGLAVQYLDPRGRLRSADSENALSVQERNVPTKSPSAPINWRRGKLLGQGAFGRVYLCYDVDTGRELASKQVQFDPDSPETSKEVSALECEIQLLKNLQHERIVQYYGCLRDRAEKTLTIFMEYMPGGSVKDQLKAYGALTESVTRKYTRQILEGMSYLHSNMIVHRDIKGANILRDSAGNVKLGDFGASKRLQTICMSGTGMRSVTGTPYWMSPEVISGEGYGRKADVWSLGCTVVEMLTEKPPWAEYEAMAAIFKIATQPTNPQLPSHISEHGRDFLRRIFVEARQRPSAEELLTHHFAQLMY

[5] = target: T2, Rhodopsin kinase GRK1 (Homo sapiens) (UniProt Q15835); assay: Selectivity interaction (KinomeScan (DiscoverX)) EUB0000045b GRK1
T2 sequence (whole entry): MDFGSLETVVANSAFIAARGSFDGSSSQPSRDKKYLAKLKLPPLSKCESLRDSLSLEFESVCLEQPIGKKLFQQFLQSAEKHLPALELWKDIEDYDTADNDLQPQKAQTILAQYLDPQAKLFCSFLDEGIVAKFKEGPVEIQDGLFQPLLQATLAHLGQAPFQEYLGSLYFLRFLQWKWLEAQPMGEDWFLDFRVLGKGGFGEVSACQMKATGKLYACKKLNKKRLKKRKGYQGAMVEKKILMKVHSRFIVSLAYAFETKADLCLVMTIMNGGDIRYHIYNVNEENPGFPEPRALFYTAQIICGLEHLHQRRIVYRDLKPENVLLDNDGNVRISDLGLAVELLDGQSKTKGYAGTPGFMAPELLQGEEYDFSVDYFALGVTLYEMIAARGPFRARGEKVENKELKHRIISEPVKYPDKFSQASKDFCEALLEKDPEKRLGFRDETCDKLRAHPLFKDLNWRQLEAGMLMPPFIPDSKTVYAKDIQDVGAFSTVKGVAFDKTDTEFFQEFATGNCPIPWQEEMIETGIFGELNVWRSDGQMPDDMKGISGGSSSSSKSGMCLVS

[6] = target: BDNF/NT-3 growth factors receptor (Homo sapiens) (UniProt Q16620); assay: Selectivity interaction (KinomeScan (DiscoverX)) EUB0001079a NTRK2; settings: at 1 µM
[7] = target: Ribosomal protein S6 kinase alpha-5 (Homo sapiens) (UniProt O75582); assay: Selectivity interaction (KinomeScan (DiscoverX)) EUB0001079a RPS6KA5; settings: at 1 µM
[8] = target: T3, Serine/threonine-protein kinase Nek3 (Homo sapiens) (UniProt P51956); assay: Selectivity interaction (KinomeScan (DiscoverX)) EUB0000229b NEK3; settings: at 10 µM
T3 sequence (whole entry): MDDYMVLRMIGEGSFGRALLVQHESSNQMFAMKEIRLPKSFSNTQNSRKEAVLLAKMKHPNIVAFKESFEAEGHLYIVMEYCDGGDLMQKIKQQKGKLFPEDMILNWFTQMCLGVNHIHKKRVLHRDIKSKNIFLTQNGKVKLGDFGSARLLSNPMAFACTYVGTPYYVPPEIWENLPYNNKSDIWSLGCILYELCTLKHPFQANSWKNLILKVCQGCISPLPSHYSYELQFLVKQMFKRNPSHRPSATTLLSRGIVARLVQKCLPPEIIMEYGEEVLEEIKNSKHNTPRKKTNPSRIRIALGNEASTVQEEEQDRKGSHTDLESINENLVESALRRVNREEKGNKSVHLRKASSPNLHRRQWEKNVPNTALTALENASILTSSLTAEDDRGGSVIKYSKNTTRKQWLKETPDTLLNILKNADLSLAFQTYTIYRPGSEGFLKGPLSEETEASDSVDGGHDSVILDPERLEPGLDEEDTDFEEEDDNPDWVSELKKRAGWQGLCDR

[9] = target: Serine/threonine-protein kinase N2 (Homo sapiens, UniProt Q16513); assay: Selectivity interaction (KinomeScan (DiscoverX)) EUB0000092b PKN2; settings: at 10 µM
[10] = target: T4, Inhibitor of nuclear factor kappa-B kinase subunit epsilon (Homo sapiens) (UniProt Q14164); assay: Selectivity interaction (KinomeScan (DiscoverX)) EUB0000618a IKBKE; settings: at 10 µM
T4 sequence (whole entry): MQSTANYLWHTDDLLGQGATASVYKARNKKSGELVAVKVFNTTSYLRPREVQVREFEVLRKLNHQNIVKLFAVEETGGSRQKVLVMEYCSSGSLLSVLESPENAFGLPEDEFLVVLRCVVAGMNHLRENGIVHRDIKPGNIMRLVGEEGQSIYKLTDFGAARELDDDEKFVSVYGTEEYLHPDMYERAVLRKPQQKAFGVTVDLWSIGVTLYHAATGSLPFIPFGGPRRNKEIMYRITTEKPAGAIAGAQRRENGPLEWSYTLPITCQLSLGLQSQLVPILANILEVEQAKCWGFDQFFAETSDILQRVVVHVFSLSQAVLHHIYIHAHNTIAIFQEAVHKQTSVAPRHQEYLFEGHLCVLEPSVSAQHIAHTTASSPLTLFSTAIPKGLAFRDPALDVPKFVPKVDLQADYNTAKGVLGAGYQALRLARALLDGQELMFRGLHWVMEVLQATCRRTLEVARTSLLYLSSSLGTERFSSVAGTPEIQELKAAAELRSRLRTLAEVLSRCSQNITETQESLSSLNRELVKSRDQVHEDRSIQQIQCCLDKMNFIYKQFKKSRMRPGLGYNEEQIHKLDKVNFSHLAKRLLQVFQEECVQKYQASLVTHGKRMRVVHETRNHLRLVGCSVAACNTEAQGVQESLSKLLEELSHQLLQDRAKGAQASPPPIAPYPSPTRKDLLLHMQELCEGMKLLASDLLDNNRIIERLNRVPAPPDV

Ribosomal protein S6 kinase alpha-5 (Homo sapiens), sequence (O75582 whole entry, looked up): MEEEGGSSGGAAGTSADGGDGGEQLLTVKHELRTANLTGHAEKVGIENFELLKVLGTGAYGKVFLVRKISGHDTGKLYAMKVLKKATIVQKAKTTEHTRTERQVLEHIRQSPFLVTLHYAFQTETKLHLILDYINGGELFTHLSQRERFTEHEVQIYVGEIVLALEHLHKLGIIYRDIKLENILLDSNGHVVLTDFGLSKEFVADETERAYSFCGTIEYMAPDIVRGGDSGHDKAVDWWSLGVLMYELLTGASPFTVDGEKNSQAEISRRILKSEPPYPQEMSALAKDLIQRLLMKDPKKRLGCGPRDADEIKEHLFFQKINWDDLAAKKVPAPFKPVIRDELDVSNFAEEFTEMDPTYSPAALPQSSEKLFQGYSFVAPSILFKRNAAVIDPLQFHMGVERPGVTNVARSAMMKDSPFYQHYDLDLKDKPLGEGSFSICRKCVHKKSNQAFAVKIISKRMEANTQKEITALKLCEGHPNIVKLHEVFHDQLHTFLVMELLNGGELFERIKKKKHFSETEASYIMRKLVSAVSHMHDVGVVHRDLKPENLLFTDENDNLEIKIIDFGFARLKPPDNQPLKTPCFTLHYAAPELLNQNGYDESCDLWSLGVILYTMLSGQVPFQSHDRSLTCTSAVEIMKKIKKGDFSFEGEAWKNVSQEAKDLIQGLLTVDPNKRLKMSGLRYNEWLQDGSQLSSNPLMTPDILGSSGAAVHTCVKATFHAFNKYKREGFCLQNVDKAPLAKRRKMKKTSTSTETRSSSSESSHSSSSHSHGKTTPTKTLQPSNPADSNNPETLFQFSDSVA
BDNF/NT-3 growth factors receptor (Homo sapiens), sequence (Q16620 32-822 limits assumed): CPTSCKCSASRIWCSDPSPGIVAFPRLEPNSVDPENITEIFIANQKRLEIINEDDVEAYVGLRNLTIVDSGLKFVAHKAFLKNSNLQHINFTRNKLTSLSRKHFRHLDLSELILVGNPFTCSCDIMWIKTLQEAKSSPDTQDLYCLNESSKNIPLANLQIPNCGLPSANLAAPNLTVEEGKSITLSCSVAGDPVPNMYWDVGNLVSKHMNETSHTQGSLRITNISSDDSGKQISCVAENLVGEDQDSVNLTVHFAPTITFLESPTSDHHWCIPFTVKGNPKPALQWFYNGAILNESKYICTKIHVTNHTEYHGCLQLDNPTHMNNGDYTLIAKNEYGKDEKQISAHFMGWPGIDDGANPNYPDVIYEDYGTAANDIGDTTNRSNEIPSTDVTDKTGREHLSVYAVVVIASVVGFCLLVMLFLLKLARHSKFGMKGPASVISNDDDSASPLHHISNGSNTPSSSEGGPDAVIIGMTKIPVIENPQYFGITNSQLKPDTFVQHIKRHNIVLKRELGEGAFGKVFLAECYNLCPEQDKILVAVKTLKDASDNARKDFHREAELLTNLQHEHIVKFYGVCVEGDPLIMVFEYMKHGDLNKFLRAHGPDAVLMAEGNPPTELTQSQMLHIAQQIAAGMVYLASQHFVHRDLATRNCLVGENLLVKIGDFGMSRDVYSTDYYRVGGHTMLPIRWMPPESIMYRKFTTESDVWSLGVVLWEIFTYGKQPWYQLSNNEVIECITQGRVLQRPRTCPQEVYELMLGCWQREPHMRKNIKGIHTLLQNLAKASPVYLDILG
Serine/threonine-protein kinase N2, sequence (Q16513 whole entry, looked up): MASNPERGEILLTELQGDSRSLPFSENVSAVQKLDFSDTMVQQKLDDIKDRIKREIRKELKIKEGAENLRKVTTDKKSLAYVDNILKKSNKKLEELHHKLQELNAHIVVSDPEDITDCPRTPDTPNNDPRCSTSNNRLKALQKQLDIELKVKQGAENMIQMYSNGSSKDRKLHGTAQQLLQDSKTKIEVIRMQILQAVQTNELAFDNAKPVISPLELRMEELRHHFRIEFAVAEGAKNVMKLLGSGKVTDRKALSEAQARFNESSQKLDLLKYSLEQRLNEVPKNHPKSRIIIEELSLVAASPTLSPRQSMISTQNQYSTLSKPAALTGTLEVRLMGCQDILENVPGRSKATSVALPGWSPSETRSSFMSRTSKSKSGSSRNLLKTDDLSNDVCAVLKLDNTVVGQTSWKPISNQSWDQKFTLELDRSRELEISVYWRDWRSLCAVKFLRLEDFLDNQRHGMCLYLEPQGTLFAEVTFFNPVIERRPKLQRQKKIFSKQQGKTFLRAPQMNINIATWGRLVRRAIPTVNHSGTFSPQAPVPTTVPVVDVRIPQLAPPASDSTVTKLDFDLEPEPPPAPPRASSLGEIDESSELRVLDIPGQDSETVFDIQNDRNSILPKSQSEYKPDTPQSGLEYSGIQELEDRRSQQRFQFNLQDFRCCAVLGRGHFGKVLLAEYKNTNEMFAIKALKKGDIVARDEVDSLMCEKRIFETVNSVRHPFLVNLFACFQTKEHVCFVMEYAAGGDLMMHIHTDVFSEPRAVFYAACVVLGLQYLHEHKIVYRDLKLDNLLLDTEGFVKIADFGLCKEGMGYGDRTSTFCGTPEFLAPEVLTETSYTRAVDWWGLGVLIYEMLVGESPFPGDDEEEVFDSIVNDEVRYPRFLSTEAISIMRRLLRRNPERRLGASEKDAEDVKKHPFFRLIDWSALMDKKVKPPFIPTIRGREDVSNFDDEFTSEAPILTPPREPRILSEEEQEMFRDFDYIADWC
Serine/threonine-protein kinase 25 (Homo sapiens), sequence (O00506 whole entry, looked up): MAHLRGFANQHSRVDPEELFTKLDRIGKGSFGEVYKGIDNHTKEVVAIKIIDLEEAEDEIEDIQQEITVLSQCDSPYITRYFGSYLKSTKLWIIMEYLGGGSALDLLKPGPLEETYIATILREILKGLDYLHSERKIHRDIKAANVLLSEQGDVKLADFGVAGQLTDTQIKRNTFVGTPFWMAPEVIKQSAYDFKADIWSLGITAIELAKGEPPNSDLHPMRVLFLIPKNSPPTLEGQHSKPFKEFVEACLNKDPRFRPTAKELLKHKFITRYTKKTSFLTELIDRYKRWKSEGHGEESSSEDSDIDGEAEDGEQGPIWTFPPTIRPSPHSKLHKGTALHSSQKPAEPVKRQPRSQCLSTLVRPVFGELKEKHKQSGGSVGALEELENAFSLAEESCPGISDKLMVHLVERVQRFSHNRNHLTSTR
Mitogen-activated protein kinase 10, sequence (P53779 whole entry): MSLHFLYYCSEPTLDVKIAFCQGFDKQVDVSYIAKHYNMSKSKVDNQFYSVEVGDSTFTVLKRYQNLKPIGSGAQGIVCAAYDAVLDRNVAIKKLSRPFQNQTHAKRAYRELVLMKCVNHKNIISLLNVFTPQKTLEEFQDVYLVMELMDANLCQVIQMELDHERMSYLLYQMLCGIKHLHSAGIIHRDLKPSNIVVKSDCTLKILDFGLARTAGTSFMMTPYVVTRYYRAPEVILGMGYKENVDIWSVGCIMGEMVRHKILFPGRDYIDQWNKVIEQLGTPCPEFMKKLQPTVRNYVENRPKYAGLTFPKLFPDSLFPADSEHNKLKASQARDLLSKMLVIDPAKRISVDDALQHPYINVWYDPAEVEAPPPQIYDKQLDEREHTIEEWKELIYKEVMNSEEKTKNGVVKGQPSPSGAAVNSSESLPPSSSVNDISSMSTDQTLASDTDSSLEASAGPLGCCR
Choline kinase alpha (Homo sapiens), sequence (P35790 whole entry, looked up): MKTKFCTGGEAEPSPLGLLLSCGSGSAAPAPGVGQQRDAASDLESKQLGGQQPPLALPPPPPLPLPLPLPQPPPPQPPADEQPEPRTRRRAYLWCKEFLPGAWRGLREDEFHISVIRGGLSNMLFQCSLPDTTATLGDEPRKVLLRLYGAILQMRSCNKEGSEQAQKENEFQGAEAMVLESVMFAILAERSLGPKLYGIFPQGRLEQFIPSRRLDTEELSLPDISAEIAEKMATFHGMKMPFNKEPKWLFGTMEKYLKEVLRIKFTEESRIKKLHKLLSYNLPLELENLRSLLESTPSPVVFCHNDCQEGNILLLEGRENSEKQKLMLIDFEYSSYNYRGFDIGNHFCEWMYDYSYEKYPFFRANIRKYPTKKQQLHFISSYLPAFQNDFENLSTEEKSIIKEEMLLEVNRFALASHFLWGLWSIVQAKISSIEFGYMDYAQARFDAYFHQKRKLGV

% of inhibition [1]: -3%
SMILES: CN1Cc2nccc(-c3cn(C)nc3-c3ccc(F)cc3)c2C1=O

SMILES: CNC(=O)Nc1ccc(-c2nc(N3CC4CCC(C3)O4)c3cnn(C4CCC5(CC4)OCCO5)c3n2)cc1
% of inhibition [2]: 2%

SMILES: Cc1cc(F)c(C(=O)Nc2cccc(-c3nncn3C(C)C)n2)cc1-n1cnc(C2CC2)c1
% of control [3]: 71%

SMILES: CN(C)C/C=C/C(=O)Nc1ccc(C(=O)N2CCCC(Nc3ncc(Cl)c(-c4c[nH]c5ccccc45)n3)C2)cc1 (stereo unspecified)
% of control [4]: 90%

SMILES: C=CC(=O)Nc1cc(-n2c(=O)ccc3cnc4ccc(-c5ccc(NS(C)(=O)=O)cc5)cc4c32)ccc1C
% of control ([5]; at 1 µM): 100%
% of control ([5]; at 10 µM): 99%

SMILES: Nc1cnc(N2CCc3cc(S(=O)(=O)Nc4c(F)cc(Cl)cc4F)cc(N4CCCC4=O)c32)nc1 [TP-020n]
% of control [6]: 100%
% of control [7]: 100%

SMILES: COc1cc(N(C)c2ccnc3ccc(C(F)(F)F)cc23)cc(OC)c1OC
% binding [8]: 80%

SMILES: CCC(=O)N1CCN(c2ccc(-n3c(=O)ccc4cnc5ccc(-c6cnc7ccccc7c6)cc5c43)cc2C(F)(F)F)CC1
% of control [9]: 65%

SMILES: O[C@H]1CC[C@H](Nc2ncc3nc(Nc4c(F)cc(F)cc4F)n([C@H]4CCOC4)c3n2)CC1
% of control [10]: 85%

Source: ChEMBL document CHEMBL5465560, “Selectivity Literature for EUbOPEN Chemogenomic Library” (2024)
